Tests used:
Type in all cases: in vivo
[1] = system: Amaranthus retoflexus (AMARE); assay: Pre-emergence Test (Table B1), AMARE; conditions: evaluated after 13 days
[2] = system: Ipomoea hederacea (IPOHE); assay: Pre-emergence Test (Table B1), IPOHE; conditions: evaluated after 13 days
[3] = system: Setaria faberi (SETFA); assay: Post-emergence Test (Table B2), SETFA; design: key: five-point scale: 5=81-100%, 4=61-80%, 3=41-60%, 2=21-40%, 1=0-20% damage; conditions: rate 250 g/Ha, evaluated after 13 days
Description: (§1) Seeds of a variety of test species are sown in standard soil in pots (Ipomoea hederacea (IPOHE), Zea mays (ZEAMX), Echinochloa crus-galli (ECHCG), Amaranthus palmeri (AMAPA), (Amaranthus retoflexus (AMARE), and (Setaria faberi (SETFA)). After 8 days cultivation under controlled conditions in a glasshouse (at 24° C./16° C., day/night; 14 hours light; 65% humidity), the plants are sprayed with an aqueous spray solution derived from the formulation of the technical active ingredient in acetone/water (50:50) solution containing 0.5% Tween 20 (polyoxyethelyene sorbitan monolaurate, CAS RN 9005-64-5). Rate of application is shown in g/ha in the tables below. The test plants are then grown in a glasshouse under controlled conditions in a glasshouse (at 24° C./16° C., day/night; 14 hours light; 65% humidity) and watered twice daily. After 13 days the test is evaluated for the percentage damage caused to the plant. The biological activities are shown in the following table on a five-point scale (5=81-100%; 4=61-80%; 3=41-60%; 2=21-40%; 1=0-20%; -=not tested).

[4] = system: Zea mays (ZEAMX); assay: Post-emergence Test (Table B2), ZEAMX; design: key: 5-point damage scale: 5=81-100%, 4=61-80%, 3=41-60%, 2=21-40%, 1=0-20%; conditions: evaluated after 13 days
In short: (§2)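 Score: % damage at 13 d on a 5-point scale (5=81-100%; 4=61-80%; 3=41-60%; 2=21-40%; 1=0-20%). Seeds sown in pots, sprayed with test article in acetone/water 50:50 + 0.5% Tween 20; rate in g/ha. Glasshouse 24/16 °C, 14 h light, 65% RH, watered twice daily.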

[5] = system: Echinochloa crus-galli (ECHCG); assay: Pre-emergence Test (Table B1), ECHCG; conditions: evaluated after 13 days
[6] = system: Setaria faberi (SETFA); assay: Pre-emergence Test (Table B1), SETFA; conditions: evaluated after 13 days
[7] = system: Echinochloa crus-galli (ECHCG); assay: Post-emergence Test (Table B2), ECHCG; design: key: 5-point damage scale: 5=81-100%, 4=61-80%, 3=41-60%, 2=21-40%, 1=0-20%; conditions: evaluated after 13 days
In short: as §2

[8] = system: Amaranthus palmeri (AMAPA); assay: Pre-emergence Test (Table B1), AMAPA; conditions: Rate 1000 g/Ha, evaluated after 13 days
[9] = system: Zea mays (ZEAMX); assay: Pre-emergence Test (Table B1), ZEAMX; conditions: Rate 1000 g/Ha, evaluated after 13 days
[10] = system: Amaranthus retoflexus (AMARE); assay: Post-emergence Test (Table B2), AMARE; design: key: five-point scale: 5=81-100%, 4=61-80%, 3=41-60%, 2=21-40%, 1=0-20% damage; conditions: rate 1000 g/Ha, evaluated after 13 days
In short: as §2

[11] = system: Ipomoea hederacea (IPOHE); assay: Post-emergence Test (Table B2), IPOHE; design: key: five-point scale: 5=81-100%, 4=61-80%, 3=41-60%, 2=21-40%, 1=0-20% damage; conditions: rate 1000 g/Ha, evaluated after 13 days
Description: as §1

CCn1c(Cc2ccccc2C(F)(F)F)cc(=O)c(C(=O)O)c1-c1ccc(Cl)c(Cl)c1 [Compound 11, 2-(3,4-dichlorophenyl)-1-ethyl-4-oxo-6-[[2-(trifluoromethyl)phenyl]methyl]pyridine-3-carboxylic acid]
0: Pre-emergence Test, percentage damage caused to the plant (five-point scale), AMARE ([1]; Rate 250 g/Ha) | Pre-emergence Test, percentage damage caused to the plant (five-point scale), IPOHE ([2]; Rate 250 g/Ha) | percentage damage caused to the plant, SETFA [3] | percentage damage caused to the plant, ZEAMX ([4]; rate 250 g/Ha) | Pre-emergence Test, percentage damage caused to the plant (five-point scale), ECHCG ([5]; Rate 250 g/Ha) | Pre-emergence Test, percentage damage caused to the plant (five-point scale), SETFA ([6]; Rate 250 g/Ha) | percentage damage caused to the plant, ECHCG ([7]; rate 250 g/Ha)

CCn1c(Cc2ccc(Cl)cc2F)cc(=O)c(C(=O)O)c1-c1ccc(Cl)c(Cl)c1 [Compound 79, 6-[(4-chloro-2-fluoro-phenyl)methyl]-2-(3,4-dichlorophenyl)-1-ethyl-4-oxo-pyridine-3-carboxylic acid]
0: Pre-emergence Test, percentage damage caused to the plant (five-point scale), AMARE ([1]; Rate 1000 g/Ha) | Pre-emergence Test, percentage damage caused to the plant (five-point scale), IPOHE ([2]; Rate 1000 g/Ha) | Pre-emergence Test, percentage damage caused to the plant (five-point scale), AMAPA [8] | Pre-emergence Test, percentage damage caused to the plant (five-point scale), ECHCG ([5]; Rate 1000 g/Ha) | Pre-emergence Test, percentage damage caused to the plant (five-point scale), ZEAMX [9] | Pre-emergence Test, percentage damage caused to the plant (five-point scale), SETFA ([6]; Rate 1000 g/Ha)

CCn1c(Cc2ccc(O)nn2)cc(=O)c(C(=O)O)c1-c1ccc(Cl)c(Cl)c1 [Compound 107, 2-(3,4-dichlorophenyl)-1-ethyl-6-[(6-hydroxypyridazin-3-yl)methyl]-4-oxo-pyridine-3-carboxylic acid]
0: Pre-emergence Test, percentage damage caused to the plant (five-point scale), AMARE ([1]; Rate 1000 g/Ha) | Pre-emergence Test, percentage damage caused to the plant (five-point scale), IPOHE ([2]; Rate 1000 g/Ha) | Pre-emergence Test, percentage damage caused to the plant (five-point scale), AMAPA [8] | percentage damage caused to the plant, AMARE [10] | percentage damage caused to the plant, ZEAMX ([4]; rate 1000 g/Ha) | Pre-emergence Test, percentage damage caused to the plant (five-point scale), ECHCG ([5]; Rate 1000 g/Ha) | Pre-emergence Test, percentage damage caused to the plant (five-point scale), ZEAMX [9] | Pre-emergence Test, percentage damage caused to the plant (five-point scale), SETFA ([6]; Rate 1000 g/Ha) | percentage damage caused to the plant, ECHCG ([7]; rate 1000 g/Ha) | percentage damage caused to the plant, IPOHE [11]

CCn1c(Cc2ccc(C)nn2)cc(=O)c(C(=O)O)c1-c1ccc(Cl)c(Cl)c1 [Compound 139, 2-(3,4-dichlorophenyl)-1-ethyl-6-[(6-methylpyridazin-3-yl)methyl]-4-oxo-pyridine-3-carboxylic acid]
0: percentage damage caused to the plant, ZEAMX ([4]; rate 250 g/Ha) | Pre-emergence Test, percentage damage caused to the plant (five-point scale), SETFA ([6]; Rate 250 g/Ha) | percentage damage caused to the plant, ECHCG ([7]; rate 250 g/Ha)
